Reference: patent US20070203247A1, “E[…] REGIMENS” (priority 2006, published 2007)
Like-named read-outs stand apart in the source and are kept apart here.

Test system: patient experiencing an allergic emergency (anaphylaxis)
Details: no amelioration after approx. 5 minutes, same device, within about five minutes after second dose
Procedure: Administration of a first and second injectable dosage form comprising an epinephrine solution for the treatment of anaphylaxis
A patient weighing approximately 15 Kg experiencing an allergic emergency whereupon a caretaker initiates treatment at the onset of shortness of breath by administering to the patient an auto-injection of a first dose of an epinephrine solution comprising 0.1 mg of epinephrine intramuscularly.
A patient weighing approximately 25 Kg experiencing an allergic emergency initiates treatment at the onset of shortness of breath by self administering a manual injection of a first dose of an epinephrine solution comprising 0.125 mg of epinephrine intramuscularly.
A patient weighing approximately 90 Kg experiencing an allergic emergency initiates treatment at the onset of shortness of breath by self administering an auto-injection of a first dose of an epinephrine solution comprising 0.6 mg of epinephrine subcutaneously.
A patient weighing approximately 110 Kg experiencing an allergic emergency initiates treatment at the onset of shortness of breath by self administering an auto-injection of a first dose of an epinephrine solution comprising 0.75 mg of epinephrine intramuscularly.

SMILES: CNC[C@H](O)c1ccc(O)c(O)c1 [epinephrine]
- patient's symptoms of anaphylaxis after the second injectable dose (Example 1: patient approx. 15 Kg, first dose 0.1 mg auto-injection intramuscularly, second dose 0.15 mg manual intramuscularly): symptoms of anaphylaxis are relieved or are at an acceptable level for transporting the patient to a physician
- patient's symptoms of anaphylaxis after the second injectable dose (Example 2: patient approx. 25 Kg, first dose 0.125 mg manual intramuscularly, second dose 0.125 mg manual intramuscularly): symptoms of anaphylaxis are relieved or are at an acceptable level for transporting the patient to a physician
- patient's symptoms of anaphylaxis after the second injectable dose (Example 3: patient approx. 90 Kg, first dose 0.6 mg auto-injection subcutaneously, second dose 0.75 mg manual intramuscularly): symptoms of anaphylaxis are relieved or are at an acceptable level for transporting the patient to a physician
- patient's symptoms of anaphylaxis after the second injectable dose (Example 4: patient approx. 110 Kg, first dose 0.75 mg auto-injection intramuscularly, second dose 1.0 mg auto-injector intramuscularly): symptoms of anaphylaxis are relieved or are at an acceptable level for transporting the patient to a physician
